Results on 15 compounds are retold here after BindingDB's records for doi:10.7270/Q2Q52N82 (The Scripps Research Institute Molecular Screening Center, 2012).

For this assay, the target named is ADP-ribosylation factor GTPase-activating protein 1 (Rattus norvegicus, UniProt Q62848).
Chain of ADP-ribosylation factor GTPase-activating protein 1 (Q62848 whole entry): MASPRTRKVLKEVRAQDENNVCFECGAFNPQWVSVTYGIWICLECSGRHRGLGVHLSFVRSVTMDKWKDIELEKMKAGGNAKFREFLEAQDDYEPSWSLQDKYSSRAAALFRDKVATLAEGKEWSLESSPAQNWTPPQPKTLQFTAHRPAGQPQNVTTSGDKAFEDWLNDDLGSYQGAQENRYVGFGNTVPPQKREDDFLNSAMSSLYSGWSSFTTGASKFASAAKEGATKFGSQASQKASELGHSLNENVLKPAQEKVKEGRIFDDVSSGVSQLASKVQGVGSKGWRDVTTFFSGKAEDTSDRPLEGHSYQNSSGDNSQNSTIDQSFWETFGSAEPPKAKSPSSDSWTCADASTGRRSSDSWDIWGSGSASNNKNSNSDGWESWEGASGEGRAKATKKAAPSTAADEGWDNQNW
Turning to `CC1CC(C)CN(C(=O)COC(=O)c2cc3ccccc3cc2O)C1` (stereo not given) [[2-(3,5-dimethylpiperidin-1-yl)-2-oxidanylidene-ethyl] 3-oxidanylnaphthalene-2-carboxylate], the IC50 is greater than 165 µM.
Take `CCC(/C=C1\Sc2ccc(OC)cc2N1CCO)=C\c1sc2ccc(OC)cc2[n+]1CCO`: the IC50 is greater than 165 µM.
For `O=NCc1ccc2noc(-c3ccc(Cl)cc3)c2c1` [SMR000549694] the value was 50.7 µM; for `COCC(C)n1c(C)cc(C(=O)CN2c3cccc4cccc(c34)S2(=O)=O)c1C` (stereo not given) [MLS002169376], greater than 165 µM.
Regarding `C=CCNc1nc(NCc2cccc(OC)c2)c2sc(-c3ccccc3)cc2n1` [N4-[(3-methoxyphenyl)methyl]-6-phenyl-N2-prop-2-enyl-thieno[3,2-d]pyrimidine-2,4-diamine], the IC50 is greater than 165 µM.
For `Cc1ccc2nc(SCC(=O)Nc3cccc(Cl)c3)nc(=O)n2c1` [MLS001234985] the value was greater than 18.3 µM.
The compound `O=C(Nc1ccc(CN2CCOCC2)cc1)c1ccc(-c2cc(Cl)ccc2Cl)o1` [5-(2,5-dichlorophenyl)-N-[4-(4-morpholinylmethyl)phenyl]-2-furamide] had an IC50 greater than 165 µM.
For `Cc1ccc2nc(SCC(=O)c3ccc(Cl)cc3)nc(=O)n2c1` the value was greater than 165 µM; for `COc1ccc(-c2cc3ccccc3oc2=O)cc1NC(=O)c1cccnc1` [N-[2-methoxy-5-(2-oxidanylidenechromen-3-yl)phenyl]pyridine-3-carboxamide], greater than 165 µM.
For `CCOc1ccc2oc(C(=O)OCC(=O)N3CC(C)OC(C)C3)c(C)c2c1` (stereo not given) [[2-(2,6-dimethylmorpholin-4-yl)-2-oxoethyl] 5-ethoxy-3-methyl-1-benzofuran-2-carboxylate] the value was greater than 165 µM; for `CC(=O)c1cccc(NC(=O)c2cccc3c(-c4cnn(C)c4)coc23)c1` [MLS003120506], greater than 165 µM.
To `C=c1cc2[nH]c(=O)c(=Cc3ccc(-c4cccc(Cl)c4)o3)c(=N)n2o1` [(6Z)-6-[[5-(3-chlorophenyl)-2-furanyl]methylidene]-7-imino-2-methyl-5-isoxazolo[2,3-a]pyrimidinone] belongs greater than 2.03 µM; to `CN(C)CCNC(=O)c1ccc(-c2cn3c(-c4ccc(Oc5ccccc5)cc4)cnc3cn2)cc1` [MLS003123272], greater than 18.3 µM.
With `c1ccc(-c2cc(-c3nnc4sc(-c5ccccn5)nn34)[nH]n2)cc1` [3-(3-phenyl-1H-pyrazol-5-yl)-6-(2-pyridinyl)-[1,2,4]triazolo[3,4-b][1,3,4]thiadiazole], the 50% inhibitory concentration (IC50) is greater than 165 µM.
To `CC(C)=CCC/C(C)=C/Cc1c(O)ccc(C(=O)/C=C/c2ccc(O)cc2)c1O` belongs greater than 165 µM.
